Test results from paper PMC4361900 (Journal of medicinal chemistry, 2013).

Legend:
LSD1 [1] = biological target: T1, LSD1 (Homo sapiens, UniProt O60341); assay: LSD1 in-vitro inhibition, horseradish peroxidase; assay type: biochemical; conditions: for Inhibition of LSD1, % inhibition @ conc.: @ 100 µM
MAO B = biological target: T2, MAO B (Homo sapiens, UniProt P27338); assay: MAO B inhibition, kynuramine fluorescence assay; assay type: biochemical; conditions: for Inhibition of MAO B, % inhibition @ conc.: @ 500 µM
T2 sequence (P27338 1-520): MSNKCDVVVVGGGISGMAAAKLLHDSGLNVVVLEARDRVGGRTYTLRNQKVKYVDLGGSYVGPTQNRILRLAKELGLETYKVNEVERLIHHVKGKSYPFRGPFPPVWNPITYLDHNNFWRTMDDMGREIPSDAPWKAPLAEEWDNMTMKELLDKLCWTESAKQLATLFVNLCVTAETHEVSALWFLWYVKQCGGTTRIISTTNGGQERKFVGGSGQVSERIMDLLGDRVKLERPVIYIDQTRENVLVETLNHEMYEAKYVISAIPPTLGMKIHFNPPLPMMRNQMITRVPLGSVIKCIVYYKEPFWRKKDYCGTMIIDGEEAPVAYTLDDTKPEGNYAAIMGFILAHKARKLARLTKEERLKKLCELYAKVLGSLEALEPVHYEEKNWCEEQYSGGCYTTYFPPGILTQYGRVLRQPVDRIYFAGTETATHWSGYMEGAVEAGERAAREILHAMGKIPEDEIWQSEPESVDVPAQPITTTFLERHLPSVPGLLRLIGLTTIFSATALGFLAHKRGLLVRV

LSD1 [2] = biological target: T1, LSD1; conditions: MAO inhibitors; cited from earlier work
H3K4me2 in MCF7 cells = assay: Western blot of H3K4 dimethylation in MCF7 cells; assay type: cell-based; conditions: 24 hours incubation
[3] = Solubility in cell culture media; assay type: physicochemical
MAO A = biological target: T3, MAO A (Homo sapiens, UniProt P21397); assay: MAO A inhibition, kynuramine fluorescence assay; assay type: biochemical
T3 sequence (P21397 1-527): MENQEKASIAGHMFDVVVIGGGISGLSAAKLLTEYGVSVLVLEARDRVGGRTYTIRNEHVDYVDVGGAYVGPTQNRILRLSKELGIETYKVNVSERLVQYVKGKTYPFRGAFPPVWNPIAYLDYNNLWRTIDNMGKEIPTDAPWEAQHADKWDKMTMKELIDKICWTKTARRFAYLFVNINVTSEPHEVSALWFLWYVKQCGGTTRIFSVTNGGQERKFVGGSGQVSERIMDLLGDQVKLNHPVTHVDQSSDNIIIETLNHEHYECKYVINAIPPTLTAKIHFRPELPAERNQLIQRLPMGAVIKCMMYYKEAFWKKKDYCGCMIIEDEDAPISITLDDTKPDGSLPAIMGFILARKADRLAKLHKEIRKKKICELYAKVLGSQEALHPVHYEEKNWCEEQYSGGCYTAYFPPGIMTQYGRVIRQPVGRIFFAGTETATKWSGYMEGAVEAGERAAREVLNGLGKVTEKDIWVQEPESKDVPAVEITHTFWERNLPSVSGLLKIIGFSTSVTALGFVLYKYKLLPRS

Row | SMILES | Inhibition of LSD1, % inhibition @ conc. (LSD1 [1]) | other results
1 | C#CCNCC(O)CNc1ccc(-c2ccccc2)cc1 (stereo not drawn) [6a] | n.i. @ 100 µM | LSD1 inhibition in words (LSD1 [1]): inactive
2 | C#CCNCC(O)COc1ccc(-c2ccc(Br)cc2)cc1 (stereo not drawn) [5i] | n.i. @ 100 µM | –
3 | C#CCNCC(O)COc1ccc(-c2cc(Cl)cc(Cl)c2)cc1 (stereo not drawn) [5k] | n.i. @ 100 µM | –
4 | C#CCNCC(O)COc1ccc(C(=O)OC)cc1 (stereo not drawn) [5m] | n.i. @ 100 µM | –
5 | C#CCNCC(O)CN(C)c1ccc(-c2ccccc2)cc1 (stereo not drawn) [6b, 1-(N-Methyl-4-phenylanilino)-3-(prop-2-ynylamino)propan-2-ol] | n.i. @ 100 µM | LSD1 inhibition in words (LSD1 [1]): inactive
6 | C#CCN(C)CC(O)COc1ccc2ccccc2c1 (stereo not drawn) [5d] | – | MAO-B inhibition in words (MAO B): only limited inhibition
7 | C#CCNCC(O)COc1ccc(C(N)=O)cc1 (stereo not drawn) [5q] | n.i. @ 100 µM | –
8 | C#CCN(C)CC(O)COc1ccc(CCC(=O)OC)cc1 (stereo not drawn) [5p] | n.i. @ 100 µM | –
9 | C#CCN(C)Cc1ccccc1 [pargyline] | – | Inhibitory activity on LSD1 (LSD1 [2]): millimolar range
10 | C#CCN(C)CC(O)COc1ccc(CC(=O)OC)cc1 (stereo not drawn) [5n] | n.i. @ 100 µM | –
11 | C#CCN(C)CC(O)COc1ccc(C(N)=O)cc1 (stereo not drawn) [5r] | n.i. @ 100 µM | –
12 | C#CCNCC(O)COc1ccc(-c2ccccc2)cc1 (stereo not drawn) [5a, 3-(Prop-2-ynylamino)-2-hydroxy-1-(biphenyl-4-yloxy)propane] | – | H3K4 dimethylation level (western blot) (H3K4me2 in MCF7 cells): increased levels of H3K4 dimethylation; Solubility in cell culture media [3]: soluble
13 | C#CCN(C)CCCOc1cccc(NC(=O)c2ccccc2)c1 [4b] | – | H3K4 dimethylation level (western blot) (H3K4me2 in MCF7 cells): increased levels of H3K4 dimethylation; Solubility in cell culture media [3]: soluble
14 | C#CCN(C)CCCC[C@H](NC(=O)OCc1ccccc1)C(=O)OCc1ccccc1 [2b] | – | Inhibition of MAO B, % inhibition @ conc. (MAO B): n.i. @ 500 µM
15 | C#CCNCCCC[C@H](NC(=O)c1ccccc1)C(=O)OC(C)(C)C [1a] | – | Inhibition of MAO B, % inhibition @ conc. (MAO B): n.i. ^a @ 500 µM; Inhibition of MAO A, % inhibition @ conc. (MAO A; @ 100 µM): n.i. @ 100 µM
16 | C#CCN(C)CC(O)COc1ccc(C(=O)OC)cc1 (stereo not drawn) [5l] | n.i. @ 100 µM | –
17 | C#CCNCC(O)COc1ccc(-c2ccc(Cl)cc2Cl)cc1 (stereo not drawn) [5j] | n.i. @ 100 µM | –
18 | C#CCNCC(O)COc1ccc(CC(=O)OC)cc1 (stereo not drawn) [5o] | n.i. @ 100 µM | –
19 | C#CCN(C)CC(O)COc1ccc(-c2ccccc2)cc1 (stereo not drawn) [5b] | – | Inhibition of MAO A, % inhibition @ conc. (MAO A; @ 10 µM): n.i. @ 10 µM
20 | C#CCN(C)[C@H](C)Cc1ccccc1 [deprenyl] | – | Inhibitory activity on LSD1 (LSD1 [2]): millimolar range
21 | OC(CNC1CC1)COc1ccc(-c2ccccc2)cc1 (stereo not drawn) [7a] | n.i. @ 100 µM | –
22 | OC(CNC1CC1)COc1ccc2ccccc2c1 (stereo not drawn) [7b] | n.i. @ 100 µM | –
